The values that follow come from patent publication US12606528B2, “Methods and materials for inhibiting NF-kB activity” (University of Pittsburgh - Of the Commonwealth System of …, priority 2019, dated 2026).

SMILES strings stand for the structures.

The test system of the assay is NF-κB. Briefly: NF-κB assay: THP1-NF-κB-LUC cells, LPS-stimulated secreted luciferase. Format: cell-based. To be noted: THP1-NF-κB-LUC cells, LPS-stimulated; read-out: IC50 (NF-κB assay). As for the experimental part: FIG. 1 contains line plots showing NF-κB activity of exemplified compounds. 25k THP1-NF-κB-LUC cells were dispensed into 384 well plate (per well). Cells were treated with compounds (2 μM and 0.2 μM) for 2 hours before addition of LPS (10 ng/mL) for 18 hours. Secreted luciferase activity were measured using quant-luc reagents (1 bag of luc reagent dilute to 40 mL, use 10 μL per well). Data were normalized to vehicle control and graphed. Structures of selected exemplified compounds are shown.
FIG. 2 contains heat charts showing NF-κB activity of exemplified compounds as a function of concentration. 25k THP1-NF-κB-LUC cells were dispensed into 384 well plate (per well). Cells were treated with compounds (with serial dilution) for 2 hours before addition of LPS (10 ng/ml) for 18 hours. Secreted luciferase activity were measured using quant-luc reagents (1 bag of luc reagent dilute to 40 mL, use 10 μL per well). Structures of selected exemplified compounds are shown.
25k THP1-NF-κB-LUC cells were dispensed into 384 well plate (per well). Cells were treated with compounds with various concentrations for 2 hours before addition of LPS (10 ng/mL) for 18 hours. Secreted luciferase activity were measured using quant-luc reagents (1 bag of luc reagent dilute to 40 mL, use 10 μL per well). Data were normalized to vehicle control and graphed. Compound IC50 towards inhibiting NF-κB were determined through Prism. Similarly, 10k human PBMCs cells were cultured in 384 well plate (per well). Cells were treated with compounds with various concentrations for 2 hours before addition of LPS (10 ng/ml) for 18 hours, and supernatants were collected and assayed for TNF ELISA. Compound IC50 towards inhibiting TNF release were determined through Prism. • Activity: “+”>10 μM, “++”>1 μM and <10 μM, “+++”>0.1 μM and <1 μM, “++++”<0.1 μM.
In the case of `CC(C)OCCCNC(=O)c1ccc2nc(-c3ccc(F)cc3)c(-c3ccc(F)cc3)nc2c1` [BC18416], the IC50 was less than 100 nM.
For `CCN(CC)CCCNC(=O)c1ccc2nc(-c3ccccc3)c(-c3ccccc3)nc2c1` [BC18417] the value was less than 100 nM.
As to `CCCN1CCN(CCCNC(=O)c2ccc3nc(-c4ccccc4)c(-c4ccccc4)nc3c2)CC1` [BC18418], the IC50 lay within 100 to 1000 nM.
For `CCCN(CCC)CCNC(=O)c1ccc2nc(-c3cccc(C)c3)c(-c3cccc(C)c3)nc2c1` [BC18419] the value was 1000 to 10000 nM; for `O=C(NCc1ccc(F)cc1)c1ccc2nc(-c3ccc(F)cc3)c(-c3ccc(F)cc3)nc2c1` [BC18420], 100 to 1000 nM.
For `O=C(NCc1ccc(Cl)cc1)c1ccc2nc(-c3ccccc3)c(-c3ccccc3)nc2c1` [BC18421], the IC50 was more than 10000 nM.
`COCCNC(=O)c1ccc2nc(-c3ccccc3)c(-c3ccccc3)nc2c1` [BC18422]: the IC50 was less than 100 nM.
Next, `C=CCN(CC=C)C(=O)c1ccc2nc(-c3ccccc3)c(-c3ccccc3)nc2c1` [BC18423]: less than 100 nM.
Regarding `Cc1cccc(CNC(=O)c2ccc3nc(-c4ccc(F)cc4)c(-c4ccc(F)cc4)nc3c2)c1` [BC18424], the IC50 lay within 100 to 1000 nM.
In the case of `Cc1cccc(-c2nc3ccc(C(=O)NCCN4CCOCC4)cc3nc2-c2cccc(C)c2)c1` [BC18425], the IC50 fell in the range of 1000 to 10000 nM.
Consider `CCN(CC)CCNC(=O)c1ccc2nc(-c3ccc(F)cc3)c(-c3ccc(F)cc3)nc2c1` [BC18426], for which the IC50 is less than 100 nM.
Next, `CCNC(=O)c1ccc2nc(-c3ccc(F)cc3)c(-c3ccc(F)cc3)nc2c1` [BC18427]: less than 100 nM; `CCN(CC)CCNC(=O)c1ccc2nc(-c3ccccc3)c(-c3ccccc3)nc2c1` [BC18428]: less than 100 nM; `O=C(c1ccc2nc(-c3ccccc3)c(-c3ccccc3)nc2c1)N1CCOCC1` [BC18429]: less than 100 nM.
Next, `Cc1cccc(-c2nc3ccc(C(=O)NCCN4CCCC4)cc3nc2-c2cccc(C)c2)c1` [BC18430]: 1000 to 10000 nM.
Consider `O=C(NC1CCCCC1)c1ccc2nc(-c3ccc(F)cc3)c(-c3ccc(F)cc3)nc2c1` [BC18431], for which the IC50 lay within 100 to 1000 nM.
Next, `CCCCNC(=O)c1ccc2nc(-c3ccccc3)c(-c3ccccc3)nc2c1` [BC18432]: 100 to 1000 nM; `Cc1ccc(CNC(=O)c2ccc3nc(-c4ccc(C)cc4)c(-c4ccc(C)cc4)nc3c2)cc1` [BC18433]: more than 10000 nM.
On to `CCCN(Cc1ccc(C)cc1)C(=O)c1ccc2nc(-c3ccccc3)c(-c3ccccc3)nc2c1` [BC18434], for which the IC50 lay in the range of 100 to 1000 nM.
For `O=C(NCCc1ccccc1)c1ccc2nc(-c3ccc(F)cc3)c(-c3ccc(F)cc3)nc2c1` [BC18435] the value was 100 to 1000 nM.
For `Cc1cccc(-c2nc3ccc(C(=O)N4CCN(c5ncccn5)CC4)cc3nc2-c2cccc(C)c2)c1` [BC18436] the value was 1000 to 10000 nM.
As to `O=C(NCCCN1CCOCC1)c1ccc2nc(-c3ccc(F)cc3)c(-c3ccc(F)cc3)nc2c1` [BC18437], the IC50 was less than 100 nM.
Next, `O=C(NCCCN1CCCC1)c1ccc2nc(-c3ccc(F)cc3)c(-c3ccc(F)cc3)nc2c1` [BC18438]: less than 100 nM; `O=C(NC1CC1)c1ccc2nc(-c3ccccc3)c(-c3ccccc3)nc2c1` [BC18439]: less than 100 nM; `CCCN1CCN(C(=O)c2ccc3nc(-c4ccccc4)c(-c4ccccc4)nc3c2)CC1` [BC18440]: less than 100 nM.
For the compound `Cc1cccc(-c2nc3ccc(C(=O)NCCN4CCCCC4C)cc3nc2-c2cccc(C)c2)c1` (stereo not drawn) [BC18441], the half-inhibitory concentration (IC50) lay in the range of 1000 to 10000 nM.
Take `CC(C)CCNC(=O)c1ccc2nc(-c3ccc(F)cc3)c(-c3ccc(F)cc3)nc2c1` [BC18442]: the 50% inhibitory concentration (IC50) was less than 100 nM.
Next, `CC(C)NC(=O)c1ccc2nc(-c3ccccc3)c(-c3ccccc3)nc2c1` [BC18443]: less than 100 nM; `Cc1ccc(-c2nc3ccc(C(=O)NCc4ccccc4)cc3nc2-c2ccc(C)cc2)cc1` [BC18444]: more than 10000 nM; `Cc1cccc(CNC(=O)c2ccc3nc(-c4ccccc4)c(-c4ccccc4)nc3c2)c1` [BC18445]: 100 to 1000 nM.
For the compound `Cc1cccc(-c2nc3ccc(C(=O)NCc4ccccc4)cc3nc2-c2cccc(C)c2)c1` [BC18446], the IC50 is more than 10000 nM.
Next, `O=C(NCc1ccccn1)c1ccc2nc(-c3ccc(F)cc3)c(-c3ccc(F)cc3)nc2c1` [BC18447]: less than 100 nM; `O=C(NC1CC1)c1ccc2nc(-c3ccc(F)cc3)c(-c3ccc(F)cc3)nc2c1` [BC18448]: less than 100 nM.
On to `O=C(NCCN1CCCC1)c1ccc2nc(-c3ccc(F)cc3)c(-c3ccc(F)cc3)nc2c1` [BC18449], for which the IC50 is less than 100 nM.
Take `CNC(=O)c1ccc2nc(-c3ccccc3)c(-c3ccccc3)nc2c1` [BC18450]: the IC50 is less than 100 nM.
For `O=C(c1ccc2nc(-c3ccccc3)c(-c3ccccc3)nc2c1)N1CCN(c2ccc(F)cc2)CC1` [BC18451] the value was 100 to 1000 nM; for `CCN1CCN(CCNC(=O)c2ccc3nc(-c4cccc(C)c4)c(-c4cccc(C)c4)nc3c2)CC1` [BC18452], 1000 to 10000 nM.
Regarding `COc1ccc(-c2nc3ccc(C(=O)NCCN4CCOCC4)cc3nc2-c2ccc(OC)cc2)cc1` [BC18453], the IC50 lay within 1000 to 10000 nM.
In the case of `CCCNC(=O)c1ccc2nc(-c3ccccc3)c(-c3ccccc3)nc2c1` [BC18454], the IC50 lay in the range of 100 to 1000 nM.
Turning to `Cc1ccc(-c2nc3ccc(C(=O)NCc4ccc(Cl)cc4)cc3nc2-c2ccc(C)cc2)cc1` [BC18455], the IC50 is more than 10000 nM.
As to `O=C(NCCN1CCCCC1)c1ccc2nc(-c3ccc(F)cc3)c(-c3ccc(F)cc3)nc2c1` [BC18456], the IC50 is less than 100 nM.
For `Cc1cccc(-c2nc3ccc(C(=O)NCc4ccc(Cl)cc4)cc3nc2-c2cccc(C)c2)c1` [BC18457] the value was more than 10000 nM.
Next, `O=C(NCc1cccnc1)c1ccc2nc(-c3ccc(F)cc3)c(-c3ccc(F)cc3)nc2c1` [BC18458]: less than 100 nM; `O=C(NCCCN1CCCC1=O)c1ccc2nc(-c3ccc(F)cc3)c(-c3ccc(F)cc3)nc2c1` [BC18459]: less than 100 nM.
For `CN1CCN(CCNC(=O)c2ccc3nc(-c4ccc(F)cc4)c(-c4ccc(F)cc4)nc3c2)CC1` [BC18460] the value was less than 100 nM; for `O=C(NCCN1CCCCCC1)c1ccc2nc(-c3ccccc3)c(-c3ccccc3)nc2c1` [BC18461], less than 100 nM.
On to `O=C(c1ccc2nc(-c3ccccc3)c(-c3ccccc3)nc2c1)N1CCN(C(=O)c2ccco2)CC1` [BC18462], for which the IC50 is less than 100 nM.
`Cc1cccc(-c2nc3ccc(C(=O)NCCN4CCN(C)CC4)cc3nc2-c2cccc(C)c2)c1` [BC18463]: the IC50 fell in the range of 1000 to 10000 nM.
Next, `O=C(NCCN1CCOCC1)c1ccc2nc(-c3ccccc3)c(-c3ccccc3)nc2c1` [BC18464]: less than 100 nM; `CC(C)CCNC(=O)c1ccc2nc(-c3ccccc3)c(-c3ccccc3)nc2c1` [BC18465]: 100 to 1000 nM.
Take `Cc1ccc(-c2nc3ccc(C(=O)NCc4ccc(F)cc4)cc3nc2-c2ccc(C)cc2)cc1` [BC18466]: the IC50 was more than 10000 nM.
For `CC(CNC(=O)c1ccc2nc(-c3ccc(F)cc3)c(-c3ccc(F)cc3)nc2c1)c1ccccc1` (stereo not drawn) [BC18467], the IC50 was 100 to 1000 nM.
Next, `Cc1ccc(CNC(=O)c2ccc3nc(-c4cccc(C)c4)c(-c4cccc(C)c4)nc3c2)cc1` [BC18468]: more than 10000 nM; `CCN(CC)CCCNC(=O)c1ccc2nc(-c3ccc(F)cc3)c(-c3ccc(F)cc3)nc2c1` [BC18469]: less than 100 nM.
